Measurements: patent US11685732B2, “MYST family histone acetyltransferase inhibitors” (Epizyme, Inc., priority 2017, dated 2023)
pIC50: −log10 of the molar value.

Experiments:
KAT-8 = KAT-8 (Homo sapiens (Human), UniProt Q9H7Z6); assay: KAT-8 biochemical inhibition assay (SAMDI mass spectrometry)
Summary of the method: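 Acetylation of 1 μM peptide substrate with 5 μM acetyl-CoA by 12.5 nM enzyme, compound pre-incubated, 2% DMSO, Tris pH 8.0 buffer with DTT, 25 °C for 90 min. Quench with 0.5% formic acid; product read by SAMDI mass spectrometry to give IC50.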

KAT-7 = KAT-7 (Homo sapiens (Human), UniProt O95251); assay: KAT-7 biochemical inhibition assay (SAMDI mass spectrometry)
Summary of the method: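 Read-out was SAMDI time-of-flight MS of formic acid-quenched reactions (0.5% final). Compound dilutions (2% DMSO final) were pre-incubated with 6 nM KAT-7 in 50 mM Tris pH 8.0 with 1 mM DTT, then given 1 μM peptide substrate and 2 μM acetyl-CoA for 120 min at 25 °C. IC50 values were derived.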

KAT-6A = KAT-6A (Homo sapiens (Human), UniProt Q92794); assay: KAT-6A biochemical inhibition assay (SAMDI mass spectrometry)
Summary of the method: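 IC50 values came from SAMDI time-of-flight mass spectrometry after formic acid quench (0.5% final). Acetylation ran 90 min at 25 °C with 1 μM acetyl coenzyme A and 1 μM peptide substrate, following compound pre-incubation with 12.5 nM KAT-6A in Tris buffer pH 8.0 containing DTT, 2% DMSO final.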

KAT-5 = KAT-5 (Homo sapiens (Human), UniProt Q92993); assay: KAT-5 biochemical inhibition assay (SAMDI mass spectrometry)
Summary of the method: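 Acetylation of 1 μM peptide by 9 nM enzyme with 0.5 μM acetyl-CoA (final) was run 90 min at 25° C in Tris pH 8.0 buffer with DTT, after compound preincubation at 2% DMSO. Formic acid stopped the reaction, and product was quantified by SAMDI mass spectrometry to derive IC50.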

Chain of KAT-7 (O95251 other isoform, or with tags, fused parts or gaps): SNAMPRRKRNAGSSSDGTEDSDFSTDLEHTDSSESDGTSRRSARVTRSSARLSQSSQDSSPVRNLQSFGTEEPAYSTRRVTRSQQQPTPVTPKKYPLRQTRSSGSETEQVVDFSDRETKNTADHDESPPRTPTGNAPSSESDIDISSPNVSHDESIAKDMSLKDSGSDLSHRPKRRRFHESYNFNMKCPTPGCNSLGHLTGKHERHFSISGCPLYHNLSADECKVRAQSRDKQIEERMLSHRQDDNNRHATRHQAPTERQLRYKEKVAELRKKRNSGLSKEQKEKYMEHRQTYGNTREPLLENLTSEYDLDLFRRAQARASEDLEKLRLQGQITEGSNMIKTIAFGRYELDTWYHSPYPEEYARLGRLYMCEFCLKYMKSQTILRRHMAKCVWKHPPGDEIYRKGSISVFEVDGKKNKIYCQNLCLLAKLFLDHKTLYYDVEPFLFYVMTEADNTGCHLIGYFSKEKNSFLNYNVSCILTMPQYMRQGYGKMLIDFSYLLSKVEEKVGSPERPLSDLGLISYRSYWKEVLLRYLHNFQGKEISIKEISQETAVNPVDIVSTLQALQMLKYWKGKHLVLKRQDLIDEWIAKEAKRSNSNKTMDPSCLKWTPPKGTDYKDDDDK
Chain of KAT-8 (Q9H7Z6 other isoform, or with tags, fused parts or gaps): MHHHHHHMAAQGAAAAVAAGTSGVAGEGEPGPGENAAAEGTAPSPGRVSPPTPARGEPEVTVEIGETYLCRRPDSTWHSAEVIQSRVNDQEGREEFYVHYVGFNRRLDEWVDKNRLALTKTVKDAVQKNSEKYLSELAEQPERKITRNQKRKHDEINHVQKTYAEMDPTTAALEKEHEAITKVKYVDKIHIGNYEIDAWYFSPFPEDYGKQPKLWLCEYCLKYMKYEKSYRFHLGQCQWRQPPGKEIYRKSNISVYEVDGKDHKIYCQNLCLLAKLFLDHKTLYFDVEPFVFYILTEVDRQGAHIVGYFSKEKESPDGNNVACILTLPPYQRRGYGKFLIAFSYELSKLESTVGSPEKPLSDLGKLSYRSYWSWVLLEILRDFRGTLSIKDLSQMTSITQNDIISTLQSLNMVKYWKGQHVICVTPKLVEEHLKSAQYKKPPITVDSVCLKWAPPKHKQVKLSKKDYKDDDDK
Chain of KAT-6A (Q92794 other isoform, or with tags, fused parts or gaps): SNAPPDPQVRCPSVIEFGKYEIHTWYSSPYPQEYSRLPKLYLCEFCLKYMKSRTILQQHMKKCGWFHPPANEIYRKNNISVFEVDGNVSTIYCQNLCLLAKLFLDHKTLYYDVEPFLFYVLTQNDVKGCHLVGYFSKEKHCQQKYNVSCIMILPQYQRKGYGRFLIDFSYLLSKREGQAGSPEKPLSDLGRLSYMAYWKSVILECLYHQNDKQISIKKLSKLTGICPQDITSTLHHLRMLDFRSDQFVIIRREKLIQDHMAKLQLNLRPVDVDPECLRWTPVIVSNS
Chain of KAT-5 (Q92993 other isoform, or with tags, fused parts or gaps): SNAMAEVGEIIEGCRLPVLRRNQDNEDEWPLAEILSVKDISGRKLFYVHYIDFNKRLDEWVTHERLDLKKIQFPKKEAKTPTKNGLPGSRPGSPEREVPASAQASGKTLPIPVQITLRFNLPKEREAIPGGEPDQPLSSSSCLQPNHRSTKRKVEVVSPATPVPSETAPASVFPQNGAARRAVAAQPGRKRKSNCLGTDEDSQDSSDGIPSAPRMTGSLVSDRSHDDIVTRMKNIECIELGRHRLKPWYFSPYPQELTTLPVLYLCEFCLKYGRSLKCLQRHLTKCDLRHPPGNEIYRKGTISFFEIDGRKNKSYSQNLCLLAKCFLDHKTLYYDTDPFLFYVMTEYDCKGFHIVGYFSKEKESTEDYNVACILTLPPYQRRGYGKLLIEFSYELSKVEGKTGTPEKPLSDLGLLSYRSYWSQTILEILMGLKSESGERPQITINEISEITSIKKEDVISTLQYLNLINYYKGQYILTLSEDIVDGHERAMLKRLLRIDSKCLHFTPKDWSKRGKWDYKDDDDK

Row | Structure (SMILES) | pIC50 (KAT-8) | pIC50 (KAT-7) | pIC50 (KAT-6A) | pIC50 (KAT-5)
1 | Cn1cnc(-c2cc(Cl)c(F)c(C(=O)NNS(=O)(=O)CC3CCC(NC(=O)N4CCCC4)C3)c2)c1 (centres unmarked) [Compound I-346] | 4.30 to 5.00 | > 5.00 | > 5.00 | > 5.00
2 | CN1CCN([C@H]2C[C@@H](CS(=O)(=O)NNC(=O)c3cc(-c4cn(C)cn4)cc(Cl)c3F)C2)C1=O [Compound I-325] | 4.30 to 5.00 | > 5.00 | > 5.00 | > 5.00
3 | CC(=O)Nc1ccc(S(=O)(=O)NNC(=O)c2cc(-c3cn(C)cn3)cc(Cl)c2F)cc1 [Compound I-379] | 4.30 to 5.00 | > 5.00 | 4.30 to 5.00 | 4.30 to 5.00
4 | Cn1cnc(-c2cc(Cl)c(F)c(C(=O)NNS(=O)(=O)Cc3cccnc3)c2)c1 [Compound I-282] | 4.30 to 5.00 | > 5.00 | 4.30 to 5.00 | > 5.00
5 | Cc1nc(-c2cc(Cl)c(F)c(C(=O)NNS(=O)(=O)CC3CCOCC3)c2)cn1C [Compound I-33] | < 4.00 | > 5.00 | 4.30 to 5.00 | 4.30 to 5.00
6 | Cn1cnc(-c2cc(Cl)c(F)c(C(=O)NNS(=O)(=O)CC3CN(C(=O)N4CCC4)C3)c2)c1 [Compound I-169] | 4.30 to 5.00 | > 5.00 | > 5.00 | 4.30 to 5.00
7 | Cn1cnc(-c2cc(Cl)c(F)c(C(=O)NNS(=O)(=O)C[C@H]3C[C@@H](N)C3)c2)c1 [Compound I-113] | 4.30 to 5.00 | > 5.00 | 4.30 to 5.00 | 4.30 to 5.00
8 | Cn1cnc(-c2cc(Cl)c(F)c(C(=O)NNS(=O)(=O)C[C@H]3CC[C@H](NC(=O)c4ccccc4)CC3)c2)c1 [Compound I-240] | 4.30 to 5.00 | > 5.00 | > 5.00 | > 5.00
9 | COCC(=O)N1CCCC(CS(=O)(=O)NNC(=O)c2cc(-c3cn(CCO)cn3)cc(C)c2F)C1 (centres unmarked) [Compound I-148] | 4.30 to 5.00 | 4.30 to 5.00 | 4.30 to 5.00 | 4.30 to 5.00
10 | Cn1cnc(-c2cc(Cl)c(F)c(C(=O)NNS(=O)(=O)C[C@H]3CCC[C@@H](NC(=O)OC(C)(C)C)C3)c2)c1 [Compound I-252] | 4.30 to 5.00 | > 5.00 | > 5.00 | > 5.00
11 | CC(=O)N[C@H]1CC[C@H](CS(=O)(=O)NNC(=O)c2cc(-c3cn(C)cn3)cc(Cl)c2F)CC1 [Compound I-101] | 4.30 to 5.00 | > 5.00 | > 5.00 | > 5.00
12 | CCNC(=O)N(C)C1CCCC(CS(=O)(=O)NNC(=O)c2cc(-c3cn(C)cn3)cc(Cl)c2F)C1 (centres unmarked) [Compound I-293] | 4.30 to 5.00 | > 5.00 | > 5.00 | > 5.00
13 | Cn1cnc(-c2cc(Cl)c(F)c(C(=O)NNS(=O)(=O)C[C@H]3CC[C@@H](NS(C)(=O)=O)CC3)c2)c1 [Compound I-248] | 4.30 to 5.00 | > 5.00 | > 5.00 | > 5.00
14 | CC(C)S(=O)(=O)N1CC(CS(=O)(=O)NNC(=O)c2cc(-c3cn(C)cn3)cc(Cl)c2F)C1 [Compound I-193] | 4.30 to 5.00 | > 5.00 | > 5.00 | 4.30 to 5.00
15 | Cn1cnc(-c2cc(Cl)c(F)c(C(=O)NNS(=O)(=O)C[C@@H]3C[C@H]4CC[C@@H]3O4)c2)c1 [Compound I-299] | 4.30 to 5.00 | > 5.00 | > 5.00 | > 5.00
16 | CNC(=O)Cn1nc(-c2cc(Cl)c(F)c(C(=O)NNS(=O)(=O)CC3CCCCC3)c2)cc1C [Compound I-311] | 4.30 to 5.00 | > 5.00 | 4.30 to 5.00 | > 5.00
17 | CN1CCN([C@H]2CC[C@H](CS(=O)(=O)NNC(=O)c3cc(-c4cn(C)cn4)cc(Cl)c3F)CC2)C1=O [Compound I-319] | 4.30 to 5.00 | > 5.00 | > 5.00 | > 5.00
18 | Cn1cnc(-c2cc(Cl)c(F)c(C(=O)NNS(=O)(=O)CC3CCN(C(=O)CCO)C3)c2)c1 (centres unmarked) [Compound I-83] | 4.30 to 5.00 | > 5.00 | 4.30 to 5.00 | 4.30 to 5.00
19 | Cn1cnc(-c2cc(Cl)c(F)c(C(=O)NNS(=O)(=O)C[C@H]3CCC[C@@H](N)C3)c2)c1 [Compound I-253] | 4.30 to 5.00 | > 5.00 | 4.30 to 5.00 | 4.30 to 5.00
20 | COc1ccc(CN(C)C(=O)NC2CCC(CS(=O)(=O)NNC(=O)c3cc(-c4cn(C)cn4)cc(Cl)c3F)C2)cc1 (centres unmarked) [Compound I-359] | 4.30 to 5.00 | > 5.00 | > 5.00 | > 5.00
21 | COCC(=O)N1CCCC(CS(=O)(=O)NNC(=O)c2cc(-c3cn(C)cn3)cc(C)c2F)C1 (centres unmarked) [Compound I-141] | < 4.00 | > 5.00 | > 5.00 | > 5.00

Row | Structure (SMILES) | pIC50 (KAT-8) | pIC50 (KAT-7) | pIC50 (KAT-6A) | pIC50 (KAT-5)
22 | CC(=O)N1CCCC(CS(=O)(=O)NNC(=O)c2cc(-c3cn(C)cn3)cc(Cl)c2F)C1 (centres unmarked) [Compound I-10] | < 4.00 | > 5.00 | > 5.00 | > 5.00
23 | CCC(=O)N1CCC(CS(=O)(=O)NNC(=O)c2cc(-c3cn(C)cn3)cc(Cl)c2F)C1 (centres unmarked) [Compound I-73] | 4.30 to 5.00 | > 5.00 | 4.30 to 5.00 | > 5.00
24 | Cn1cnc(-c2cc(Cl)c(F)c(C(=O)NNS(=O)(=O)C[C@H]3CCNC3)c2)c1 [Compound I-121] | 4.30 to 5.00 | > 5.00 | 4.30 to 5.00 | 4.30 to 5.00
25 | COCCn1cnc(-c2cc(C)c(F)c(C(=O)NNS(=O)(=O)C3CCCCC3)c2)c1 [Compound I-134] | < 4.00 | > 5.00 | < 4.00 | 4.30 to 5.00
26 | CNC(=O)NC1CCCC(CS(=O)(=O)NNC(=O)c2cc(-c3cn(C)cn3)cc(Cl)c2F)C1 (centres unmarked) [Compound I-118] | 4.30 to 5.00 | > 5.00 | > 5.00 | > 5.00
27 | Cn1cnc(-c2cc(Cl)c(F)c(C(=O)NNS(=O)(=O)CC3CCN(C(N)=O)C3)c2)c1 (centres unmarked) [Compound I-205] | 4.30 to 5.00 | > 5.00 | > 5.00 | > 5.00
28 | CNC1CCC(CS(=O)(=O)NNC(=O)c2cc(-c3cn(C)cn3)cc(Cl)c2F)CC1 (centres unmarked) [Compound I-297] | 4.30 to 5.00 | > 5.00 | 4.30 to 5.00 | 4.30 to 5.00
29 | Cn1cnc(-c2cc(Cl)c(F)c(C(=O)NNS(=O)(=O)Cc3ccccc3)c2)c1 [Compound I-111] | 4.30 to 5.00 | > 5.00 | > 5.00 | > 5.00
30 | Cn1cnc(-c2cc(Cl)c(F)c(C(=O)NNS(=O)(=O)CC3CN(S(=O)(=O)C4CC4)C3)c2)c1 [Compound I-185] | 4.30 to 5.00 | > 5.00 | > 5.00 | 4.30 to 5.00
31 | CNC(=O)N1CCCC(CS(=O)(=O)NNC(=O)c2cc(-c3cn(C)cn3)cc(Cl)c2F)C1 (centres unmarked) [Compound I-191] | 4.30 to 5.00 | > 5.00 | > 5.00 | > 5.00
32 | O=C(NNS(=O)(=O)CC1CCCCC1)c1cc(-n2cccn2)cc(Cl)c1F [Compound I-34] | < 4.00 | 4.30 to 5.00 | > 5.00 | > 5.00
33 | Cn1cnc(-c2cc(Cl)c(F)c(C(=O)NNS(=O)(=O)c3cnn(CCO)c3)c2)c1 [Compound I-362] | 4.30 to 5.00 | > 5.00 | 4.30 to 5.00 | 4.30 to 5.00
34 | COCCNC(=O)N1CCCC(CS(=O)(=O)NNC(=O)c2cc(-c3cn(C)cn3)cc(Cl)c2F)C1 (centres unmarked) [Compound I-217] | 4.30 to 5.00 | > 5.00 | > 5.00 | > 5.00
35 | Cc1cc(-c2cn(CCO)cn2)cc(C(=O)NNS(=O)(=O)C2CCOCC2)c1F [Compound I-143] | < 4.00 | 4.00 to 4.30 | 4.00 to 4.30 | 4.00 to 4.30
36 | Cn1cnc(-c2cc(Cl)c(F)c(C(=O)NNS(=O)(=O)CC3CCCC(NC(=O)c4ccccn4)C3)c2)c1 (centres unmarked) [Compound I-234] | 4.30 to 5.00 | > 5.00 | > 5.00 | > 5.00
37 | Cn1cnc(-c2cc(Cl)c(F)c(C(=O)NNS(=O)(=O)C[C@@H]3CCN(C(=O)OC(C)(C)C)C3)c2)c1 [Compound I-117] | 4.30 to 5.00 | > 5.00 | > 5.00 | > 5.00
38 | Cn1cnc(-c2cc(Cl)c(F)c(C(=O)NNS(=O)(=O)C[C@H]3CC[C@H](NC(N)=O)CC3)c2)c1 [Compound I-194] | 4.30 to 5.00 | > 5.00 | > 5.00 | > 5.00
39 | CCNC(=O)NC1CCCC(CS(=O)(=O)NNC(=O)c2cc(-c3cn(C)cn3)cc(Cl)c2F)C1 (centres unmarked) [Compound I-97] | 4.30 to 5.00 | > 5.00 | > 5.00 | > 5.00
40 | Cc1ncc(-c2cc(Cl)c(F)c(C(=O)NNS(=O)(=O)CC3CCOCC3)c2)[nH]1 [Compound I-81] | 4.30 to 5.00 | 4.30 to 5.00 | > 5.00 | > 5.00
41 | COCCC(=O)N1CCC(CS(=O)(=O)NNC(=O)c2cc(-c3cn(C)cn3)cc(Cl)c2F)C1 (centres unmarked) [Compound I-56] | 4.30 to 5.00 | > 5.00 | 4.30 to 5.00 | 4.30 to 5.00
